{
  "source": "patent US9139809B2",
  "about": "“Bacterial vaccines with cell wall-associated ceramide-like glycolipids and uses thereof” (priority 2009, dated 2015)",
  "key": {"malarial parasite": {"system": "malarial parasite", "conditions": "mice, αGalCer as a therapeutic; cited from earlier work"}, "M. tuberculosis": {"system": "M. tuberculosis", "conditions": "αGalCer as a therapeutic; cited from earlier work"}, "serum cytokines": {"system": "serum cytokines", "conditions": "mice, cited from earlier work"}, "M. tuberculosis H37Rv": {"system": "M. tuberculosis H37Rv", "conditions": "in vivo"}, "tumor and malaria": {"system": "tumor and malaria", "conditions": "mice; cited from earlier work"}},
  "data": [
    {"smiles": "CCCCCCCCCCCCCCCCCCCCCCCCCC(=O)N[C@@H](CO[C@H]1O[C@H](CO)[C@H](O)[C@H](O)[C@H]1O)[C@H](O)[C@H](O)CCCCCCCCCCCCCC", "note": "[αGalCer, (2S,3S,4R)-1-O-(α-D-galactopyranosyl)-N-hexacosanoyl-2-amino-1,3,4-octadecanetriol]", "values": [
      {"measurement": "malarial parasite load", "setting": "malarial parasite", "result": "reduce malarial parasite load"},
      {"measurement": "survival of M. tuberculosis infected mice", "setting": "M. tuberculosis", "result": "prolong the survival"},
      {"measurement": "serum cytokines after a single injection (IFNγ, IL-12 and IL-4)", "setting": "serum cytokines; single injection", "result": "induces a cytokine storm in the serum"}
    ]},
    {"smiles": "CCCCCCCCCCCCCCCCCCCCCCCCCC(=O)N[C@@H](CCC1OC(CO)C(O)C(O)C1O)[C@H](O)[C@H](O)CCCCCCCCCCCCCC", "note": "(stereo partly drawn) [α-C-GalCer, (2S,3S,4R)-1-CH2-(α-galactopyranosyl)-N-hexacosanoyl-2-amino-1,3,4-octadecanetriol]", "values": [
      {"measurement": "improvement of the protective efficacy of BCG, comparison of the two glycolipids", "setting": "M. tuberculosis H37Rv", "result": "superior to αGalCer"},
      {"measurement": "levels of Th1 cytokines IL-12 and IFNγ", "setting": "serum cytokines; compared with αGalCer", "result": "induces higher levels"},
      {"measurement": "anti-tumor and anti-malarial activity compared with αGalCer", "setting": "tumor and malaria", "result": "superior anti-tumor and anti-malarial activity as compared to αGalCer"}
    ]}
  ]
}
